The values that follow come from PubChem BioAssay AID651794 (The Scripps Research Institute Molecular Screening Center, 2012).

Active and inactive are the calls of the source. No rule for the calls is given here.

The test system of the assay is cell-based VP16 transactivation counterscreen, luciferase luminescence. The assay can be described thus: nonselective repression of VP16-driven luciferase – cell-based, luminescence, dose response, counter-screen for SRC1 inhibitor project, late-stage follow-up (AID 651794). A general note: A counterscreen serves to expose hits that act by an unwanted route or on another target.
`COc1ccc(Nc2ncnc3ccc(Br)cc23)c(OC)c1`: the IC50 was 36.2 µM (inactive).

`COc1ccc(NC(=O)CN(C)C(=O)C2(c3ccccc3)CCCC2)cc1`: the IC50 is > 35.9 µM (inactive).

Regarding `COc1cc([C@@H]2c3cc4c(cc3C(OC3OC5COC(C)OC5C(O)C3O)C3COC(=O)[C@@H]32)OCO4)cc(OC)c1O` (stereo partly drawn), the IC50 was > 35.9 µM (inactive).

What is called IC50 is the midpoint of a concentration-inhibition curve.
